Measurements from ChEMBL document CHEMBL5614394, “Novel pleuromutilin derivatives conjugated with phenyl-sulfide and boron-containing moieties as potent antibacterial agents against antibiotic-resistant bacteria” (Eur J Med Chem, 2024).
Converted amounts (≈) assume the structure as drawn. The source made the active and inactive calls. No cut-off for these calls is given here.

Experiments:
Staphylococcus aureus [1] = test: Antibacterial activity against Staphylococcus aureus ATCC 29213 assessed as inhibition of visible growth of bacteria incubated for 24 hrs by CLSI protocol based broth-dilution method; format: functional
[2] = test system: Staphylococcus epidermidis; test: Antibacterial activity against Staphylococcus epidermidis ATCC 12228 assessed as inhibition of visible growth of bacteria incubated for 24 hrs by CLSI protocol based broth-dilution method; format: functional
Staphylococcus aureus [3] = test: Antibacterial activity against Staphylococcus aureus USA 300 assessed as inhibition of visible growth of bacteria incubated for 24 hrs by CLSI protocol based broth-dilution method; format: functional
Staphylococcus aureus [4] = test: Antibacterial activity against methicilin-resistant Staphylococcus aureus isolate 15-2 assessed as inhibition of visible growth of bacteria incubated for 24 hrs by CLSI protocol based broth-dilution method; format: functional
Staphylococcus aureus [5] = test: Antibacterial activity against Staphylococcus aureus ATCC 25923 assessed as inhibition of visible growth of bacteria incubated for 24 hrs by CLSI protocol based broth-dilution method; format: functional
Staphylococcus aureus [6] = test: Antibacterial activity against Staphylococcus aureus ATCC 33591 assessed as inhibition of visible growth of bacteria incubated for 24 hrs by CLSI protocol based broth-dilution method; format: functional
Staphylococcus aureus [7] = test: Antibacterial activity against Staphylococcus aureus ATCC 43300 assessed as inhibition of visible growth of bacteria incubated for 24 hrs by CLSI protocol based broth-dilution method; format: functional
Staphylococcus aureus [8] = test: Antibacterial activity against Staphylococcus aureus ATCC 700788 assessed as inhibition of visible growth of bacteria incubated for 24 hrs by CLSI protocol based broth-dilution method; format: functional
Staphylococcus aureus [9] = test: Antibacterial activity against Staphylococcus aureus ATCC 700699 assessed as inhibition of visible growth of bacteria incubated for 24 hrs by CLSI protocol based broth-dilution method; format: functional
Streptococcus pneumoniae [10] = test: Antibacterial activity against penicillin resistant Streptococcus pneumoniae isolate 20-1 assessed as inhibition of visible growth of bacteria incubated for 24 hrs by CLSI protocol based broth-dilution method; format: functional
Streptococcus pneumoniae [11] = test: Antibacterial activity against penicillin sensitive Streptococcus pneumoniae isolate 20-1 assessed as inhibition of visible growth of bacteria incubated for 24 hrs by CLSI protocol based broth-dilution method; format: functional
[12] = test system: Staphylococcus epidermidis; test: Antibacterial activity against methicillin-sensitive Staphylococcus epidermidis isolate 20-15 assessed as inhibition of visible growth of bacteria incubated for 24 hrs by CLSI protocol based broth-dilution method; format: functional
Enterococcus faecalis [13] = test: Antibacterial activity against Enterococcus faecalis ATCC 29212 assessed as inhibition of visible growth of bacteria incubated for 24 hrs by CLSI protocol based broth-dilution method; format: functional
Enterococcus faecalis [14] = test: Antibacterial activity against Enterococcus faecalis HB 24-4 assessed as inhibition of visible growth of bacteria incubated for 24 hrs by CLSI protocol based broth-dilution method; format: functional
Escherichia coli = test: Antibacterial activity against Escherichia coli ATCC 25922 assessed as inhibition of visible growth of bacteria incubated for 24 hrs by CLSI protocol based broth-dilution method; format: functional
Acinetobacter baumannii = test: Antibacterial activity against Acinetobacter baumannii ATCC 19606 assessed as inhibition of visible growth of bacteria incubated for 24 hrs by CLSI protocol based broth-dilution method; format: functional
Enterococcus faecium [15] = test: Antibacterial activity against pleuromutilin-resistant Enterococcus faecium 18SC29-2 harboring (lsa(E)-) genotype assessed as inhibition of visible growth of bacteria incubated for 24 hrs by CLSI protocol based broth-dilution method; format: functional
Enterococcus faecium [16] = test: Antibacterial activity against pleuromutilin-resistant Enterococcus faecium 18FJZ1-1 harboring (lsa(E)+) genotype assessed as inhibition of visible growth of bacteria incubated for 24 hrs by CLSI protocol based broth-dilution method; format: functional
Staphylococcus aureus [17] = test: Antibacterial activity against methicillin-resistant Staphylococcus aureus J1 harboring (lsa(E)+) genotype assessed as inhibition of visible growth of bacteria incubated for 24 hrs by CLSI protocol based broth-dilution method; format: functional
Staphylococcus simulans = test: Antibacterial activity against pleuromutilin-resistant Staphylococcus simulans isolate 55-1 harboring cfr+ genotype assessed as inhibition of visible growth of bacteria incubated for 24 hrs by CLSI protocol based broth-dilution method; format: functional
Staphylococcus aureus [18] = test: Antibacterial activity against methicillin-resistant Staphylococcus aureus USA 300 assessed as inhibition of bacterial growth at 1 times of MIC measured upto 24 hrs by time-kill kinetics assay; format: functional, organism-based
Staphylococcus aureus [19] = test: Bactericidal activity against methicillin-resistant Staphylococcus aureus USA 300 assessed as inhibition of bacterial growth at 8 times of MIC by time kill kinetics assay; format: functional, organism-based; details: time <= 24.0 hrs, TDE = time-dependent effect
[20] = Stability in mouse liver microsomes assessed as drug metabolism at 1 uM measured within 1 hrs in presence of NADPH by LC-MS analysis; format: ADME, Microsome; details: read-out: Drug metabolism
[21] = Stability in rat liver microsomes assessed as drug metabolism at 1 uM measured within 1 hrs in presence of NADPH by LC-MS analysis; format: ADME, Microsome; details: read-out: Drug metabolism
[22] = Stability in human liver microsomes assessed as drug metabolism at 1 uM measured within 1 hrs in presence of NADPH by LC-MS analysis; format: ADME, Microsome; details: read-out: Drug metabolism
Staphylococcus aureus [23] = test: Antibacterial activity against methicillin-resistant Staphylococcus aureus USA 300 assessed as number of colonies with prevalence of spontaneous mutation at 4 times of MIC incubated for 48 hrs by agar dilution assay; format: functional
Staphylococcus aureus [24] = test: Antibacterial activity against methicillin-resistant Staphylococcus aureus USA 300 assessed as number of colonies with prevalence of spontaneous mutation at 8 times of MIC incubated for 48 hrs by agar dilution assay; format: functional
Streptococcus pneumoniae [25] = test: Antibacterial activity against penicillin resistant Streptococcus pneumoniae isolate 20-2 assessed as inhibition of visible growth of bacteria incubated for 24 hrs by CLSI protocol based broth-dilution method; format: functional
Streptococcus pneumoniae [26] = test: Antibacterial activity against penicillin resistant Streptococcus pneumoniae isolate 20-3 assessed as inhibition of visible growth of bacteria incubated for 24 hrs by CLSI protocol based broth-dilution method; format: functional
Streptococcus pneumoniae [27] = test: Antibacterial activity against penicillin resistant Streptococcus pneumoniae isolate 20-4 assessed as inhibition of visible growth of bacteria incubated for 24 hrs by CLSI protocol based broth-dilution method; format: functional
Staphylococcus aureus [28] = test: Antibacterial activity against methicillin resistant Staphylococcus aureus USA 300 infected in peritonitis sepsis CD-1 mouse model assessed as mouse survival rate at 40 mg/kg, iv administered as single dose and measured after 7 days relative to control; format: functional; details: USA 300, 168 h, time 7 day
Staphylococcus aureus [29] = test: Antibacterial activity against methicillin resistant Staphylococcus aureus USA 300 infected in peritonitis sepsis CD-1 mouse model assessed as mouse survival rate at 40 mg/kg, iv administered as double dose with 6 hrs interval and measured after 7 days relative to control; format: functional; details: USA 300, 168 h, time 7 day
[30] = Acute toxicity in male CD-1 mouse assessed as effect on survival at 40 mg/kg, iv administered as single dose for 7 days; format: organism-based; details: in vivo, 168 h, time 7 day
HEK293 = test: Cytotoxicity against HEK293 cells incubated for 48 hrs by MTT assay; format: toxicity, cell-based; details: human, hek293, 48 h
HUVEC = test: Cytotoxicity against HUVEC cells incubated for 48 hrs by MTT assay; format: toxicity, cell-based; details: human
[31] = test system: Staphylococcus epidermidis; test: Antibacterial activity against methicillin-resistant Staphylococcus epidermidis isolate 20-26 assessed as inhibition of visible growth of bacteria incubated for 24 hrs by CLSI protocol based broth-dilution method; format: functional
[32] = test system: Staphylococcus epidermidis; test: Antibacterial activity against methicillin-resistant Staphylococcus epidermidis isolate 20-27 assessed as inhibition of visible growth of bacteria incubated for 24 hrs by CLSI protocol based broth-dilution method; format: functional
[33] = test system: Staphylococcus epidermidis; test: Antibacterial activity against methicillin-resistant Staphylococcus epidermidis isolate 20-28 assessed as inhibition of visible growth of bacteria incubated for 24 hrs by CLSI protocol based broth-dilution method; format: functional
[34] = test system: Staphylococcus epidermidis; test: Antibacterial activity against methicillin-resistant Staphylococcus epidermidis isolate 20-29 assessed as inhibition of visible growth of bacteria incubated for 24 hrs by CLSI protocol based broth-dilution method; format: functional

Structure (SMILES)	MIC (Staphylococcus aureus [1]) [µg/mL]	MIC [2] [µg/mL]	MIC (Staphylococcus aureus [3]) [µg/mL]	MIC (Staphylococcus aureus [4]) [µg/mL]	MIC (Staphylococcus aureus [5]) [µg/mL]	MIC (Staphylococcus aureus [6]) [µg/mL]	MIC (Staphylococcus aureus [7]) [µg/mL]	MIC (Staphylococcus aureus [8]) [µg/mL]	MIC (Staphylococcus aureus [9]) [µg/mL]	MIC (Streptococcus pneumoniae [10]) [µg/mL]	MIC (Streptococcus pneumoniae [11]) [µg/mL]	MIC [12] [µg/mL]	MIC (Enterococcus faecalis [13]) [µg/mL]	MIC (Enterococcus faecalis [14]) [µg/mL]	MIC (Escherichia coli) [µg/mL]	MIC (Acinetobacter baumannii) [µg/mL]	MIC (Enterococcus faecium [15]) [µg/mL]	MIC (Enterococcus faecium [16]) [µg/mL]	MIC (Staphylococcus aureus [17]) [µg/mL]	MIC (Staphylococcus simulans) [µg/mL]	further results
C=C[C@]1(C)C[C@@H](OC(=O)CSc2cccc(NC(=O)c3ccc(B(O)O)cc3)c2)[C@]2(C)[C@H](C)CC[C@]3(CCC(=O)[C@H]32)[C@@H](C)[C@@H]1O	≤ 0.016	0.016 (≈ 0.0253 µM)	≤ 0.03	≤ 0.03	≤ 0.03	≤ 0.03	≤ 0.03	≤ 0.03	≤ 0.03	0.06 (≈ 0.0947 µM)	≤ 0.03	≤ 0.03	0.25 (≈ 0.395 µM)	0.25 (≈ 0.395 µM)	64 (≈ 101 µM)	> 64	≤ 0.03	0.5 (≈ 0.789 µM)	2 (≈ 3.16 µM)	1 (≈ 1.58 µM)	Activity (Staphylococcus aureus [18]): Active; Activity (Staphylococcus aureus [19]): Tde; metabolised at 1 h, 1 µM [20]: 87.5%; metabolised at 1 h, 1 µM [21]: 84.6%; metabolised at 1 h, 1 µM [22]: 78.8%; Activity (Staphylococcus aureus [23]): <4.7 10^-11No_unit; Activity (Staphylococcus aureus [24]): <4.7 10^-11No_unit
C=C[C@]1(C)C[C@@H](OC(=O)CSc2cccc(NC(=O)c3ccc4c(c3)B(O)OC4)c2)[C@]2(C)[C@H](C)CC[C@]3(CCC(=O)[C@H]32)[C@@H](C)[C@@H]1O	≤ 0.016	0.016 (≈ 0.0248 µM)	≤ 0.03	≤ 0.03	≤ 0.03	≤ 0.03	≤ 0.03	≤ 0.03	≤ 0.03	0.06 (≈ 0.0929 µM)	0.06 (≈ 0.0929 µM)	≤ 0.03	1 (≈ 1.55 µM)	0.25 (≈ 0.387 µM)	32 (≈ 49.6 µM)	> 64	≤ 0.03	2 (≈ 3.1 µM)	4 (≈ 6.2 µM)	1 (≈ 1.55 µM)	MIC (Streptococcus pneumoniae [25]): 0.06 µg/mL (≈ 0.0929 µM); MIC (Streptococcus pneumoniae [26]): ≤ 0.03 µg/mL; MIC (Streptococcus pneumoniae [27]): 0.06 µg/mL (≈ 0.0929 µM); Activity (Staphylococcus aureus [18]): Active; Activity (Staphylococcus aureus [19]): Tde; metabolised at 1 h, 1 µM [20]: 67.2%; metabolised at 1 h, 1 µM [21]: 52.7%; metabolised at 1 h, 1 µM [22]: 51.1%; survival at 40 mg/kg (Staphylococcus aureus [28]): 17%; survival at 40 mg/kg (Staphylococcus aureus [29]): 50%; Activity [30]: Non-Toxic; Activity (Staphylococcus aureus [23]): <4.7 10^-11No_unit; Activity (Staphylococcus aureus [24]): <4.7 10^-11No_unit; Activity (HEK293): Non-Toxic; Activity (HUVEC): Non-Toxic
C=C[C@]1(C)C[C@@H](OC(=O)CSC(C)(C)CNC(=O)c2ccc3c(c2)B(O)OC3)[C@]2(C)[C@H](C)CC[C@]3(CCC(=O)[C@H]32)[C@@H](C)[C@@H]1O	0.063 (≈ 0.101 µM)	0.063 (≈ 0.101 µM)															0.125 (≈ 0.2 µM)	8 (≈ 12.8 µM)	16 (≈ 25.6 µM)	2 (≈ 3.2 µM)	
C=C[C@]1(C)C[C@@H](OC(=O)CS[C@@H]2CC[C@@H](N)C[C@H]2O)[C@]2(C)[C@H](C)CC[C@]3(CCC(=O)[C@H]32)[C@@H](C)[C@@H]1O [LEFAMULIN]	0.25 (≈ 0.492 µM)		0.25 (≈ 0.492 µM)	0.5 (≈ 0.985 µM)	≤ 0.25	0.25 (≈ 0.492 µM)	0.25 (≈ 0.492 µM)	0.5 (≈ 0.985 µM)	0.25 (≈ 0.492 µM)	1 (≈ 1.97 µM)	1 (≈ 1.97 µM)	0.25 (≈ 0.492 µM)	32 (≈ 63 µM)	2 (≈ 3.94 µM)	8 (≈ 15.8 µM)	> 64					MIC (Streptococcus pneumoniae [25]): 1 µg/mL (≈ 1.97 µM); MIC (Streptococcus pneumoniae [26]): 1 µg/mL (≈ 1.97 µM); MIC (Streptococcus pneumoniae [27]): 1 µg/mL (≈ 1.97 µM); MIC [31]: 0.5 µg/mL (≈ 0.985 µM); MIC [32]: 0.25 µg/mL (≈ 0.492 µM); MIC [33]: 0.25 µg/mL (≈ 0.492 µM); MIC [34]: 0.125 µg/mL (≈ 0.246 µM); metabolised at 1 h, 1 µM [20]: 41.4%; metabolised at 1 h, 1 µM [21]: 80.2%; metabolised at 1 h, 1 µM [22]: 84%; survival at 40 mg/kg (Staphylococcus aureus [28]): 33%
C=C[C@]1(C)C[C@@H](OC(=O)CSC(C)(C)CNC(=O)[C@H](N)C(C)C)[C@]2(C)[C@H](C)CC[C@]3(CCC(=O)[C@H]32)[C@@H](C)[C@@H]1O [VALNEMULIN]																	≤ 0.06	8 (≈ 14.2 µM)	> 32	8 (≈ 14.2 µM)	
